Data on 1 molecule can be found in paper PMC7655827, “NeoR, a near-infrared absorbing rhodopsin” (Nature Communications, 2020).

What all share (assay type): binding
Test [1] deals with T1, NeoR (RGC3), rhodopsin fragment (Rhizoclosmatium globosum, UniProt A0A1Y2CSJ0, T238A).
T1 construct: gene BCR33DRAFT_847233; rhodopsin domain aa 1-279; C-terminal strepII tag (Sf21) or C-terminal 1D4 tag TETSQVAPA (HEK-T, mutants)
The experiment in a line: UV-Vis absorption and fluorescence of purified protein. The note with it: 50 mM HEPES pH 7.4, 200 mM NaCl, 0.02% DDM/0.004% CHS; covalent (retinal Schiff base).

Test [2] concerns the target T2, NeoR (RGC3), rhodopsin fragment (Rhizoclosmatium globosum, UniProt A0A1Y2CSJ0, T238P).
T2 construct: gene BCR33DRAFT_847233; rhodopsin domain aa 1-279; C-terminal strepII tag (Sf21) or C-terminal 1D4 tag TETSQVAPA (HEK-T, mutants)
The description is as above. The note with it: 50 mM HEPES pH 7.4, 200 mM NaCl, 0.02% DDM/0.004% CHS; covalent (retinal Schiff base).

In test [3] the target is T3, NeoR (RGC3), rhodopsin fragment (Rhizoclosmatium globosum, UniProt A0A1Y2CSJ0, S191A).
T3 construct: gene BCR33DRAFT_847233; rhodopsin domain aa 1-279; C-terminal strepII tag (Sf21) or C-terminal 1D4 tag TETSQVAPA (HEK-T, mutants)
T3 sequence (A0A1Y2CSJ0 entry or part of it S191A): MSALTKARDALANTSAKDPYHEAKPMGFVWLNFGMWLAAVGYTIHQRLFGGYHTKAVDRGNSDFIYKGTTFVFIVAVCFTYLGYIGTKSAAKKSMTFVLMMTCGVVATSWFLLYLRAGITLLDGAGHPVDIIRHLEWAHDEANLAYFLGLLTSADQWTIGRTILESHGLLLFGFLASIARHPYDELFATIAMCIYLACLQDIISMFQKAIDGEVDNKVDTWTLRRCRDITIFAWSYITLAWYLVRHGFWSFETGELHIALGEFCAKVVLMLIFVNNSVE
The test is described as above. The note with it: 50 mM HEPES pH 7.4, 200 mM NaCl, 0.02% DDM/0.004% CHS; covalent (retinal Schiff base).

The target of the next test is T4, NeoR full-length protein (Rhizoclosmatium globosum, UniProt A0A1Y2CSJ0).
T4 construct: gene BCR33DRAFT_847233; full length aa 1-509, C-terminal His(8) tag, Sf21 insect cells
T4 sequence (A0A1Y2CSJ0 1-509): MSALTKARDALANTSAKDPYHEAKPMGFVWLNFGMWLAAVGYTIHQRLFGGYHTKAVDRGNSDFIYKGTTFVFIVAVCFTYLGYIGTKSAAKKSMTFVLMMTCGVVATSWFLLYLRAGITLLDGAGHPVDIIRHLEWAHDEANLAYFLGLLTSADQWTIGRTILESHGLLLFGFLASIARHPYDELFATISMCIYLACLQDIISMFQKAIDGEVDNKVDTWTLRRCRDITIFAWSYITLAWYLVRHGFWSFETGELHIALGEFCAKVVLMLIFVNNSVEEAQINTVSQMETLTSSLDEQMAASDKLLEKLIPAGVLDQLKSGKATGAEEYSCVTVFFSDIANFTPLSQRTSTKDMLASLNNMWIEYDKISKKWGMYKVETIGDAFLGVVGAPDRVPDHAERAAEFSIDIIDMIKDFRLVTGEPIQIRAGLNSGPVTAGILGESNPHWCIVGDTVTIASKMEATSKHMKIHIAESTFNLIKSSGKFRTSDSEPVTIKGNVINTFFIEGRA
Nature of the test: UV-Vis absorption of purified protein. The note with it: detergent; covalent (retinal Schiff base).

In test [4] the target is T5, NeoR (RGC3), rhodopsin fragment (Rhizoclosmatium globosum, UniProt A0A1Y2CSJ0, E136Q).
T5 construct: gene BCR33DRAFT_847233; rhodopsin domain aa 1-279; C-terminal strepII tag (Sf21) or C-terminal 1D4 tag TETSQVAPA (HEK-T, mutants)
T5 sequence (A0A1Y2CSJ0 entry or part of it E136Q): as the sequence (A0A1Y2CSJ0 entry or part of it S191A) above, with E136Q, A191S counted along it
Nature of the test: UV-Vis absorption and fluorescence of purified protein. The note with it: 50 mM HEPES pH 7.4, 200 mM NaCl, 0.02% DDM/0.004% CHS; covalent (retinal Schiff base).

The target in test [5] is T6, NeoR (RGC3), rhodopsin fragment (Rhizoclosmatium globosum, UniProt A0A1Y2CSJ0).
T6 construct: gene BCR33DRAFT_847233; rhodopsin domain aa 1-279; C-terminal strepII tag (Sf21) or C-terminal 1D4 tag TETSQVAPA (HEK-T, mutants)
The test is described as above. The following applies: 50 mM HEPES pH 7.4, 200 mM NaCl, 0.02% DDM/0.004% CHS; covalent (retinal Schiff base).

In test [6] the target is T7, NeoR (RGC3), rhodopsin fragment (Rhizoclosmatium globosum, UniProt A0A1Y2CSJ0, E262Q).
T7 construct: gene BCR33DRAFT_847233; rhodopsin domain aa 1-279; C-terminal strepII tag (Sf21) or C-terminal 1D4 tag TETSQVAPA (HEK-T, mutants)
T7 sequence (A0A1Y2CSJ0 entry or part of it E262Q): as the sequence (A0A1Y2CSJ0 entry or part of it S191A) above, with A191S, E262Q counted along it
The description is as above. The note with it: 50 mM HEPES pH 7.4, 200 mM NaCl, 0.02% DDM/0.004% CHS; covalent (retinal Schiff base).

Each structure is given as a SMILES string.

T1 sequence (A0A1Y2CSJ0 entry or part of it T238A): as the sequence (A0A1Y2CSJ0 entry or part of it S191A) above, with A191S, T238A counted along it
T2 sequence (A0A1Y2CSJ0 entry or part of it T238P): as the sequence (A0A1Y2CSJ0 entry or part of it S191A) above, with A191S, T238P counted along it

Take `CC1=C(/C=C/C(C)=C/C=C/C(C)=C/C=O)C(C)(C)CCC1` [all-trans retinal]: the “UV-Vis absorption and fluorescence of purified protein” value in test [1] is “achieved by mutation of S191A and T238P/A, which are located near the β-ionone ring”; in test [2], “achieved by mutation of S191A and T238P/A, which are located near the β-ionone ring”; in test [3], “achieved by mutation of S191A and T238P/A, which are located near the β-ionone ring”; in test [4], “Mutation of either one of these to Gln results in chromophore deprotonation”; in test [5], “in the absence of retinal no functional rhodopsin was produced when recombinant NeoR was expressed”; in test [6], “Mutation of either one of these to Gln results in chromophore deprotonation”. On NeoR full-length protein, the “UV-Vis absorption of purified protein” value was “The spectral properties are similar for the NeoR full-length protein and the rhodopsin fragment”.
